Laboratory results from patent US7160888B2, “[1,8]naphthyridin-2-ones and related compounds for the treatment of schizophrenia” (Warner Lambert Company LLC, priority 2003, dated 2007).

Biological target: D2 receptor (Homo sapiens, UniProt P14416)
Experiment: [3H]Thymidine uptake assay for D2 intrinsic activity
Format: cell-based
Settings: Table 1; test compound 1 μM; 1 μM Quinpirole = 100% intrinsic activity

D2 receptor, sequence (P14416 whole entry): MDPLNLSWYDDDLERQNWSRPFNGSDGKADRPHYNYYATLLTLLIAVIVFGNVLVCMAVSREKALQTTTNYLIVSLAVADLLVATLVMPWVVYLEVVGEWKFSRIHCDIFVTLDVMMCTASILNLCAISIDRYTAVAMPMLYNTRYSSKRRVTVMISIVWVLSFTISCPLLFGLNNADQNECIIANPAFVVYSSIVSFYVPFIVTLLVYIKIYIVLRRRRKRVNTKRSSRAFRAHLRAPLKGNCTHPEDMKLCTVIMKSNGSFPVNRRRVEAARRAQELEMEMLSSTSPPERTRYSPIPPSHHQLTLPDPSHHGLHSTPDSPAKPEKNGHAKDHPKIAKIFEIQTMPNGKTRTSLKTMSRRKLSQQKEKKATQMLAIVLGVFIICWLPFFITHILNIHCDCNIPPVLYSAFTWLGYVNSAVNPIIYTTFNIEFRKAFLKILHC

First: O=C1CCc2ccc(OCCCCN3CCN(c4cccc5ccc(Cl)cc45)CC3)nc2N1 [Example A74, 7-{4-[4-(7-Chloro-naphthalen-1-yl)-piperazin-1-yl]-butoxy}-3,4-dihydro-1H-[1,8]naphthyridin-2-one]
Second: COc1ccc2cccc(N3CCN(CCCCOc4ccc5c(n4)NC(=O)CC5)CC3)c2c1 [Example A73, 7-{4-[4-(7-Methoxy-naphthalen-1-yl)-piperazin-1-yl]-butoxy}-3,4-dihydro-1H-[1,8]naphthyridin-2-one]
The Emax at 1 µM of the first is higher: 37% for the first, 23% for the second.

Compared with `COc1ccc2cccc(N3CCN(CCCCOc4nc(C)c5ccc(=O)[nH]c5n4)CC3)c2c1` [Example H11, 2-{4-[4-(7-Methoxy-naphthalen-1-yl)-piperazin-1-yl]-butoxy}-4-methyl-8H-pyrido[2,3-d]pyrimidin-7-one], `O=c1ccc2cnc(OCCCCN3CCN(c4cccc5ccccc45)CC3)cc2[nH]1` [Example I16, 7-[4-(4-Naphthalen-1-yl-piperazin-1-yl)-butoxy]-1H-[1,6]naphthyridin-2-one] is higher in Emax at 1 µM: 23% for the first, 27% for the second.

First: Cc1ccc(Cl)cc1N1CCN(CCCCOc2ccc3c(n2)NC(=O)CC3)CC1 [Example A14, 7-{4-[4-(5-Chloro-2-methyl-phenyl)-piperazin-1-yl]-butoxy}-3,4-dihydro-1H-[1,8]naphthyridin-2-one]
Second: CCc1cccc(N2CCN(CCCCOc3ccc4c(n3)NC(=O)CC4)CC2)c1 [Example A16, 7-{4-[4-(3-Ethyl-phenyl)-piperazin-1-yl]-butoxy}-3,4-dihydro-1H-[1,8]naphthyridin-2-one]
The Emax at 1 µM of the first is lower: 7% for the first, 16% for the second.

Going from `CC(=O)c1ccc2ccccc2c1N1CCN(CCCCOc2ccc3ccc(=O)[nH]c3n2)CC1` [Example B66, 7-{4-[4-(2-Acetyl-naphthalen-1-yl)-piperazin-1-yl]-butoxy}-1H-[1,8]naphthyridin-2-one] to `O=c1ccc2ccc(OCCCCN3CCN(c4ccc(F)cc4)CC3)nc2[nH]1` [Example B13, 7-{4-[4-(4-Fluoro-phenyl)-piperazin-1-yl]-butoxy}-1H-[1,8]naphthyridin-2-one], the Emax at 1 µM rises from 33% to 45%.

First: CC(CCCN1CCN(c2cccc(Cl)c2Cl)CC1)Oc1ccc2c(n1)NC(=O)CC2 (stereo not shown) [Example C5, 7-{4-[4-(2,3-Dichloro-phenyl)-piperazin-1-yl]-1-methyl-butoxy}-3,4-dihydro-1H-[1,8]naphthyridin-2-one]
Second: CC(CCCN1CCN(c2cccc3ccccc23)CC1)Oc1ccc2c(n1)NC(=O)CC2 (stereo not shown) [Example C6, 7-[1-Methyl-4-(4-naphthalen-1-yl-piperazin-1-yl)-butoxy]-3,4-dihydro-1H-[1,8]naphthyridin-2-one]
The Emax at 1 µM of the first is lower: 40% for the first, 44% for the second.

Compared with `Cc1c(F)ccc(N2CCN(CCCCOc3ccc4ccc(=O)[nH]c4n3)CC2)c1Cl` [Example B8, 7-{4-[4-(2-Chloro-4-fluoro-3-methyl-phenyl)-piperazin-1-yl]-butoxy}-1H-[1,8]naphthyridin-2-one], `O=c1ccc2ccc(OCCCCN3CCN(c4ccc(F)c(Cl)c4Cl)CC3)nc2[nH]1` [Example B24, 7-{4-[4-(2,3-Dichloro-4-fluoro-phenyl)-piperazin-1-yl]-butoxy}-1H-[1,8]naphthyridin-2-one] is lower in Emax at 1 µM: 17% for the first, 10% for the second.

Going from `O=c1ccc2ccc(OCCCCN3CCN(c4cccc(C5CC5)n4)CC3)nc2[nH]1` [Example B29, 7-{4-[4-(6-Cyclopropyl-pyridin-2-yl)-piperazin-1-yl]-butoxy}-1H-[1,8]naphthyridin-2-one] to `O=C1CCc2cccc(N3CCN(CCCCOc4ccc5ccc(=O)[nH]c5n4)CC3)c21` [Example B44, 7-{4-[4-(3-Oxo-indan-4-yl)-piperazin-1-yl]-butoxy}-1H-[1,8]naphthyridin-2-one], the Emax at 1 µM falls from 32% to 27%.

Going from `CC(C)Oc1ccccc1N1CCN(CCCCOc2ccc3c(n2)NC(=O)CC3(C)C)CC1` [Example D25, 7-{4-[4-(2-Isopropoxy-phenyl)-piperazin-1-yl]-butoxy}-4,4-dimethyl-3,4-dihydro-1H-[1,8]naphthyridin-2-one] to `O=C1CCc2ccc(OCCCCN3CCN(c4ccccc4C(F)(F)F)CC3)nc2N1` [Example A37, 7-{4-[4-(2-Trifluoromethyl-phenyl)-piperazin-1-yl]-butoxy}-3,4-dihydro-1H-[1,8]naphthyridin-2-one], the Emax at 1 µM rises from 31% to 46%.

Going from `Cc1c(F)ccc(N2CCN(CCCCCc3ccc4c(n3)NC(=O)CC4)CC2)c1Cl` [Example C15, 7-{5-[4-(2-Chloro-4-fluoro-3-methyl-phenyl)-piperazin-1-yl]-pentyl}-3,4-dihydro-1H-[1,8]naphthyridin-2-one] to `CC1(C)Cc2ccc(CCCCCN3CCN(c4cccc(Cl)c4Cl)CC3)nc2NC1=O` [Example D12, 7-{5-[4-(2,3-Dichloro-phenyl)-piperazin-1-yl]-pentyl}-3,3-dimethyl-3,4-dihydro-1H-[1,8]naphthyridin-2-one], the Emax at 1 µM falls from 8% to 3%.

Compared with `O=C1CCc2ccc(OCCCCN3CCN(c4cccc5cccc(Cl)c45)CC3)nc2N1` [Example A77, 7-{4-[4-(8-Chloro-naphthalen-1-yl)-piperazin-1-yl]-butoxy}-3,4-dihydro-1H-[1,8]naphthyridin-2-one], `O=C1CCc2ccc(OCCCCN3CCN(c4cccc5c4C(=O)CCC5)CC3)nc2N1` [Example A51, 7-{4-[4-(8-Oxo-5,6,7,8-tetrahydro-naphthalen-1-yl)-piperazin-1-yl]-butoxy}-3,4-dihydro-1H-[1,8]naphthyridin-2-one] is lower in Emax at 1 µM: 36% for the first, 20% for the second.

First: O=C1CCc2ccc(OCCCCN3CCC(c4cccc5ccccc45)CC3)nc2N1 [Example A64, 7-[4-(4-Naphthalen-1-yl-piperidin-1-yl)-butoxy]-3,4-dihydro-1H-[1,8]naphthyridin-2-one]
Second: CN1Cc2ccc(OCCCCN3CCN(c4cccc5ccccc45)CC3)nc2NC1=O [Example F8, 3-Methyl-7-[4-(4-naphthalen-1-yl-piperazin-1-yl)-butoxy]-3,4-dihydro-1H-pyrido[2,3-d]pyrimidin-2-one]
The Emax at 1 µM of the first is higher: 36% for the first, 15% for the second.

Going from `O=C1CCc2cc(Br)c(OCCCCN3CCN(c4cccc(Cl)c4Cl)CC3)nc2N1` [Example E7, 6-Bromo-7-{4-[4-(2,3-dichloro-phenyl)-piperazin-1-yl]-butoxy}-3,4-dihydro-1H-[1,8]naphthyridin-2-one] to `O=C1CCc2cnc(OCCCCN3CCN(c4cccc5ccccc45)CC3)c(Br)c2N1` [Example I7, 8-Bromo-7-[4-(4-naphthalen-1-yl-piperazin-1-yl)-butoxy]-3,4-dihydro-1H-[1,6]naphthyridin-2-one], the Emax at 1 µM rises from 19% to 37%.

Going from `O=C1COc2ccc(CCCCCN3CCN(c4cccc5c4CCCC5)CC3)nc2N1` [Example G2, 6-{5-[4-(5,6,7,8-Tetrahydro-naphthalen-1-yl)-piperazin-1-yl]-pentyl}-4H-pyrido[3,2-b][1,4]oxazin-3-one] to `O=C1COc2ccc(CCCCCN3CCN(c4cccc(Cl)c4Cl)CC3)nc2N1` [Example G1, 6-{5-[4-(2,3-Dichloro-phenyl)-piperazin-1-yl]-pentyl}-4H-pyrido[3,2-b][1,4]oxazin-3-one], the Emax at 1 µM rises from 6% to 27%.

First: O=C1NCc2ccc(OCCCCN3CCN(c4cccc5c4CCC5)CC3)nc2N1 [Example F3, 7-[4-(4-Indan-4-yl-piperazin-1-yl)-butoxy]-3,4-dihydro-1H-pyrido[2,3-d]pyrimidin-2-one]
Second: O=C1CCc2ccc(OCCCCN3CCN(c4cccc5c4CCCCC5)CC3)nc2N1 [Example A63, 7-{4-[4-(6,7,8,9-Tetrahydro-5H-benzocyclohepten-1-yl)-piperazin-1-yl]-butoxy}-3,4-dihydro-1H-[1,8]naphthyridin-2-one]
The Emax at 1 µM of the first is higher: 15% for the first, 4% for the second.

With `CC1(C)C(=O)Nc2nc(OCCCCN3CCN(c4cccc(Cl)c4Cl)CC3)ccc2C1=O` [Example D14, 7-{4-[4-(2,3-Dichloro-phenyl)-piperazin-1-yl]-butoxy}-3,3-dimethyl-1H-[1,8]naphthyridine-2,4-dione] the Emax at 1 µM was 3%.

Same assay, conditions: Table 2; test compound 1 μM; 1 μM Quinpirole = 100% intrinsic activity

Compared with `O=c1ccc2ccc(OCCCCN3CCN(c4cccc5c4OCCO5)CC3)nc2[nH]1` [Example B12′, 7-{4-[4-(2,3-Dihydro-benzo[1,4]dioxin-5-yl)-piperazin-1-yl]-butoxy}-1H-[1,8]naphthyridin-2-one], `O=c1ccc2ccc(OCCCCN3CCN(c4cccc5ncc(F)cc45)CC3)nc2[nH]1` [Example B34′, 7-{4-[4-(3-Fluoro-quinolin-5-yl)-piperazin-1-yl]-butoxy}-1H-[1,8]naphthyridin-2-one] is higher in Emax at 1 µM: 24% for the first, 35% for the second.

Compared with `O=C1CCc2cnc(OCCCCN3CCN(c4cccc5c4OCCC5)CC3)cc2N1` [Example H1′, 7-[4-(4-Chroman-8-yl-piperazin-1-yl)-butoxy]-3,4-dihydro-1H-[1,6]naphthyridin-2-one], `O=C1CCc2cnc(OCCCCN3CCN(c4cccc5c4OC(F)(F)O5)CC3)cc2N1` [Example H4′, 7-{4-[4-(2,2-Difluoro-benzo[1,3]dioxol-4-yl)-piperazin-1-yl]-butoxy}-3,4-dihydro-1H-[1,6]naphthyridin-2-one] is lower in Emax at 1 µM: 22% for the first, 21% for the second.

`Cc1nc(OCCCCN2CCN(c3cccc4cccnc34)CC2)nc2[nH]c(=O)ccc12` [Example G15′, 4-Methyl-2-[4-(4-quinolin-8-yl-piperazin-1-yl)-butoxy]-8H-pyrido[2,3-d]pyrimidin-7-one] and `O=C1CCc2ccc(OCCCCN3CCN(c4cccc5nsnc45)CC3)nc2N1` [Example A30′, 7-[4-(4-Benzo[1,2,5]thiadiazol-4-yl-piperazin-1-yl)-butoxy]-3,4-dihydro-1H-[1,8]naphthyridin-2-one] are the same in Emax at 1 µM: 41% for the first, 41% for the second.

First: O=C1NCc2ccc(OCCCCN3CCN(c4cccc5c4OCCC5)CC3)nc2N1 [Example E2′, 7-[4-(4-Chroman-8-yl-piperazin-1-yl)-butoxy]-3,4-dihydro-1H-pyrido[2,3-d]pyrimidin-2-one]
Second: O=C1CCc2ccc(OCCCCN3CCN(c4cccc5c4CCO5)CC3)nc2N1 [Example A11′, 7-{4-[4-(2,3-Dihydro-benzofuran-4-yl)-piperazin-1-yl]-butoxy}-3,4-dihydro-1H-[1,8]naphthyridin-2-one]
The Emax at 1 µM of the first is lower: 9% for the first, 17% for the second.
